Experimental data from the supplement of paper PMC11208160.

Test: recombinant barcode read abundance after kanamycin selection (control-corrected) (log10(CPM+1)); higher = more efficient recombination; sequences stand for … in AGTGCAGAGAAAATCGGCCAGTTTTCTCTGCCTGCAGTCCGCATGCCGT…AGATTTATGCAGCGGACTGCCTTTCTCCCAAAGTGATAAACCGGACAGTATCATGGACCGGTTTTCCCGGTAATCCGTATTTGCAAGGTTGGTTTCACT; site = the 11-nt target
Outline: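 Pooled E. coli screen pairing targets with IS621 bridge RNA target-binding loops. Each oligo (promoter, target, barcode, J23119-driven first 104 bridge RNA bases) was Gibson-cloned into a vector with the remaining 73 bp and T7-inducible recombinase, then co-electroporated with a donor plasmid. Two replicates each were plated on chloramphenicol/ampicillin LB agar (control) or chloramphenicol/ampicillin/kanamycin with 0.1 mM IPTG. Recombination efficiency is recombinant-junction barcode counts as CPM, averaged, control-corrected, reported as log10(CPM+1).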
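Note: IS621 recombinase and bridge RNA in Escherichia coli cells.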

Row | Sequence | recombinant barcode read abundance (log10)
1 | TGAGTTCCTTGGGTTCTAACCTGTTGCTT (site TGAGTGCCTAA) | 0.00865
2 | TGAGTTCCTTGGGTTCTAACCTGTTGCTT (site TGAGTTCCTAA) | 0.719
3 | TGATAGACTTGGGTTCTAACCTGTTGCAC (site AGAGAGACTGT) | 0.0172
4 | TGATAGACTTGGGTTCTAACCTGTTGCAC (site TGATAGACTGT) | 1.38
5 | TGATTTCCTTGGGTTCTAACCTGTTGCCT (site AGATTGCCTAG) | 0
6 | TGATTTCCTTGGGTTCTAACCTGTTGCCT (site TGATTTCCTAG) | 0
7 | TGCAATACTTGGGTTCTAACCTGTTGCAT (site ACAGTATCTCA) | 0.054
8 | TGCAATACTTGGGTTCTAACCTGTTGCAT (site TGCAATACTAT) | 0.136
9 | TGCAGGGCTTGGGTTCTAACCTGTTGCGG (site GCATACACTTG) | 0.177
10 | TGCAGGGCTTGGGTTCTAACCTGTTGCGG (site TGCAGGGCTCC) | 1.26
11 | TGCCAGACTTGGGTTCTAACCTGTTGCAT (site TGCCAGACTAT) | 1.12
12 | TGCCAGACTTGGGTTCTAACCTGTTGCAT (site TGCCAGCCTAG) | 0.466
13 | TGCCCGCCTTGGGTTCTAACCTGTTGCCT (site AGCCCGCCTAG) | 0.0736
14 | TGCCCGCCTTGGGTTCTAACCTGTTGCCT (site CGCCCGCCTAG) | 0.102
15 | TGCCCGCCTTGGGTTCTAACCTGTTGCCT (site GGCCCGCCTAG) | 0.757
16 | TGCCCGCCTTGGGTTCTAACCTGTTGCCT (site TGCCCGCCTAG) | 0.292
17 | TGCCGACCTTGGGTTCTAACCTGTTGCCT (site TGCCGACCTAG) | 0.321
18 | TGCCGACCTTGGGTTCTAACCTGTTGCCT (site TGCGGAGCTAG) | 0.185
19 | TGCCTAGCTTGGGTTCTAACCTGTTGCCT (site TGACTAGCTAG) | 0.0824
20 | TGCCTAGCTTGGGTTCTAACCTGTTGCCT (site TGCCTAGCTAG) | 0.24
21 | TGCCTAGCTTGGGTTCTAACCTGTTGCCT (site TGGCTAGCTAG) | 0.11
22 | TGCCTAGCTTGGGTTCTAACCTGTTGCCT (site TGTCTAGCTAG) | 0.0825

Row | Sequence | recombinant barcode read abundance (log10)
23 | TGCCTATCTTGGGTTCTAACCTGTTGCTT (site ATGTCTACTCT) | 0.325
24 | TGCCTATCTTGGGTTCTAACCTGTTGCTT (site TGCCTATCTAA) | 0.52
25 | TGCCTGCCTTGGGTTCTAACCTGTTGCCT (site AAGACAACTCC) | 0.06
26 | TGCCTGCCTTGGGTTCTAACCTGTTGCCT (site TGCCTGCCTAG) | 0.287
27 | TGCGCCTCTTGGGTTCTAACCTGTTGCTG (site TACGCCTCTTA) | 0.108
28 | TGCGCCTCTTGGGTTCTAACCTGTTGCTG (site TGCGCCTCTCA) | 1.26
29 | TGCGCTACTTGGGTTCTAACCTGTTGCCT (site TGCGCAACTAG) | 0.0205
30 | TGCGCTACTTGGGTTCTAACCTGTTGCCT (site TGCGCCACTAG) | 0.0462
31 | TGCGCTACTTGGGTTCTAACCTGTTGCCT (site TGCGCGACTAG) | 0.141
32 | TGCGCTACTTGGGTTCTAACCTGTTGCCT (site TGCGCTACTAG) | 0.25
33 | TGCGGAGCTTGGGTTCTAACCTGTTGCCG (site GATTATACTAA) | 0.0782
34 | TGCGGAGCTTGGGTTCTAACCTGTTGCCG (site TGCGGAGCTCG) | 0.726
35 | TGCGTCCCTTGGGTTCTAACCTGTTGCCT (site TGAGTCCCTAG) | 0.405
36 | TGCGTCCCTTGGGTTCTAACCTGTTGCCT (site TGCGTCCCTAG) | 0.291
37 | TGCGTCCCTTGGGTTCTAACCTGTTGCCT (site TGGGTCCCTAG) | 0.117
38 | TGCGTCCCTTGGGTTCTAACCTGTTGCCT (site TGTGTCCCTAG) | 0.0158
39 | TGCTCCTCTTGGGTTCTAACCTGTTGCCT (site AGCTCCTCTAG) | 0.0656
40 | TGCTCCTCTTGGGTTCTAACCTGTTGCCT (site CGCTCCTCTAG) | 0.153
41 | TGCTCCTCTTGGGTTCTAACCTGTTGCCT (site GGCTCCTCTAG) | 0.109
42 | TGCTCCTCTTGGGTTCTAACCTGTTGCCT (site TGCTCCTCTAG) | 0.274
43 | TGCTTCCCTTGGGTTCTAACCTGTTGCGG (site TGCTTCCCTCC) | 0.594
